Measured values reported in ChEMBL document CHEMBL1201862, “PubChem BioAssay data set” (2004).
Active and inactive are the calls of the source.

Legend:
Leucine aminopeptidase = biological target: T1, Leucine aminopeptidase (Plasmodium falciparum 3D7, UniProt Q8IL11); assay: P. falciparum M17LAP inhibitors, primary screen, biochemical, fluorogenic H-Leu-NHMec substrate, 1536-well (AID 1619); assay type: functional
T1 sequence (Q8IL11 whole entry): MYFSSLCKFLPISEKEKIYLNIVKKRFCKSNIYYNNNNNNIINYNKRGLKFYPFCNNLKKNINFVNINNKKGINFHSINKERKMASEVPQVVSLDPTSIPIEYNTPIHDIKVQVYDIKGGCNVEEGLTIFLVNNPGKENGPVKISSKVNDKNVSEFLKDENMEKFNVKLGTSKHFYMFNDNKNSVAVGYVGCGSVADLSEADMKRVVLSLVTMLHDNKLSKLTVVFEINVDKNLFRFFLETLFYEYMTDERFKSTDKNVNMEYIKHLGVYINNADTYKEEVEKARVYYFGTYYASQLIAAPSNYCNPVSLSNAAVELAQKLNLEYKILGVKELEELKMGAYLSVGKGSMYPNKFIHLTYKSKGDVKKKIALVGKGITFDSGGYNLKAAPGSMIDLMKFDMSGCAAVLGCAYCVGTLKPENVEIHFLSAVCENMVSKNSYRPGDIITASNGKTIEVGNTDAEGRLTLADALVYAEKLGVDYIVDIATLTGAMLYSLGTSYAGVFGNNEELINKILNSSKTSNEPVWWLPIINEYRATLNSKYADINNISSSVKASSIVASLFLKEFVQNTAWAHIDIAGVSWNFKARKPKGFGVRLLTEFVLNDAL

[1] = biological target: Serine/threonine-protein phosphatase (Candida dubliniensis (strain CD36 / CBS 7987 / NCPF 3949 / NRRLY-17841) (Yeast), UniProt B9W6M3); assay: blockers of CaCl2-induced CDRE-lacZ signaling – S. cerevisiae, luminescence, secondary, dose response (AID 2388); assay type: functional, cell-based;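 further: yeast reporter cells carrying a calcineurin-responsive lacZ construct stimulated with calcium chloride; luminescent beta-galactosidase reporter signal in whole cells rather than isolated phosphatase activity; potency for inhibition where a drop in reporter signal means calcineurin blockade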
Serine/threonine-protein phosphatase, sequence (B9W6M3 whole entry): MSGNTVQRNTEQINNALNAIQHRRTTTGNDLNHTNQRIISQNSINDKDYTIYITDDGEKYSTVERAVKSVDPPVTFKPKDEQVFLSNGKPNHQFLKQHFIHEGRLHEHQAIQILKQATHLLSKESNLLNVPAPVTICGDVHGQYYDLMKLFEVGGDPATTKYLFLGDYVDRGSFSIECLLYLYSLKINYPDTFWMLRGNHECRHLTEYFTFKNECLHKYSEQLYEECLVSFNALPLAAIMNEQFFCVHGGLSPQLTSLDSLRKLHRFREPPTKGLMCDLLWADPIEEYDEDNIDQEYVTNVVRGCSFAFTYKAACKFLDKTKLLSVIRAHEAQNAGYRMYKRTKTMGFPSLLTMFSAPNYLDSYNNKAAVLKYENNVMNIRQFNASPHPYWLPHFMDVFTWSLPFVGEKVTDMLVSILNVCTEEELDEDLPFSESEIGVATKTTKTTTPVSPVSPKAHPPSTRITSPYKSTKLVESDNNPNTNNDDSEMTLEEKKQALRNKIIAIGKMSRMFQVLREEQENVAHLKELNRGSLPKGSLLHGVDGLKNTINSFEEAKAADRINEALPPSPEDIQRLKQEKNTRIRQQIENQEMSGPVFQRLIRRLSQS

[2] = biological target: ATP-dependent molecular chaperone HSP82 (Candida albicans (strain WO-1) (Yeast), UniProt C4YTQ8); assay: steroid-induced GRE reporter decrease in yeast – S. cerevisiae, luminescence, Hsp90 inhibitor project, dose response (AID 2400); assay type: functional, cell-based;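 further: beta-galactosidase luminescence from glucocorticoid response element reporter as proxy for Hsp90 function; inhibitor potency where signal loss means Hsp90 inhibition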
ATP-dependent molecular chaperone HSP82, sequence (C4YTQ8 whole entry): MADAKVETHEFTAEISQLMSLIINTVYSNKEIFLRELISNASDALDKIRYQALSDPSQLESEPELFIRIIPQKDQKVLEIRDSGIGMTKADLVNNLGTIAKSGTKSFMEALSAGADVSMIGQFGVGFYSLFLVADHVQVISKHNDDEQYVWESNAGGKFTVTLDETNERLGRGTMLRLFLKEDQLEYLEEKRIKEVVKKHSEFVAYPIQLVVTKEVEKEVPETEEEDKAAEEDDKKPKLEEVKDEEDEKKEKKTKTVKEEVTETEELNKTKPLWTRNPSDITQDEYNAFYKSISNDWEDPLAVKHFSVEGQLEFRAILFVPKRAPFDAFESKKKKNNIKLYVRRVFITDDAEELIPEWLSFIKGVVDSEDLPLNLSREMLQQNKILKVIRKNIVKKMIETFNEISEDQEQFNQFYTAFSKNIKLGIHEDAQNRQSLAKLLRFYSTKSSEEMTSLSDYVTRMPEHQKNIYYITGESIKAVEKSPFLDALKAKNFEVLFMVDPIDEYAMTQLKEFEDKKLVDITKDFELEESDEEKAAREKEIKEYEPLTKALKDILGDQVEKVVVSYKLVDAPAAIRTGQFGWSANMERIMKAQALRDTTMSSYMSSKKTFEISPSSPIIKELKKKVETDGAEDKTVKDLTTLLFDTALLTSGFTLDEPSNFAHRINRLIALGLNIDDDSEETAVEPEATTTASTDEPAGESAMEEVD

Beta-galactosidase [3] = biological target: T2, Beta-galactosidase (Escherichia coli, UniProt Q8VNN2); assay: detection-enzyme interference by beta-gal modulators – biochemical, E. coli enzyme, set 3, artefact control for CCR6 antagonist project, dose response (AID 504712); assay type: functional
T2 sequence (Q8VNN2 whole entry): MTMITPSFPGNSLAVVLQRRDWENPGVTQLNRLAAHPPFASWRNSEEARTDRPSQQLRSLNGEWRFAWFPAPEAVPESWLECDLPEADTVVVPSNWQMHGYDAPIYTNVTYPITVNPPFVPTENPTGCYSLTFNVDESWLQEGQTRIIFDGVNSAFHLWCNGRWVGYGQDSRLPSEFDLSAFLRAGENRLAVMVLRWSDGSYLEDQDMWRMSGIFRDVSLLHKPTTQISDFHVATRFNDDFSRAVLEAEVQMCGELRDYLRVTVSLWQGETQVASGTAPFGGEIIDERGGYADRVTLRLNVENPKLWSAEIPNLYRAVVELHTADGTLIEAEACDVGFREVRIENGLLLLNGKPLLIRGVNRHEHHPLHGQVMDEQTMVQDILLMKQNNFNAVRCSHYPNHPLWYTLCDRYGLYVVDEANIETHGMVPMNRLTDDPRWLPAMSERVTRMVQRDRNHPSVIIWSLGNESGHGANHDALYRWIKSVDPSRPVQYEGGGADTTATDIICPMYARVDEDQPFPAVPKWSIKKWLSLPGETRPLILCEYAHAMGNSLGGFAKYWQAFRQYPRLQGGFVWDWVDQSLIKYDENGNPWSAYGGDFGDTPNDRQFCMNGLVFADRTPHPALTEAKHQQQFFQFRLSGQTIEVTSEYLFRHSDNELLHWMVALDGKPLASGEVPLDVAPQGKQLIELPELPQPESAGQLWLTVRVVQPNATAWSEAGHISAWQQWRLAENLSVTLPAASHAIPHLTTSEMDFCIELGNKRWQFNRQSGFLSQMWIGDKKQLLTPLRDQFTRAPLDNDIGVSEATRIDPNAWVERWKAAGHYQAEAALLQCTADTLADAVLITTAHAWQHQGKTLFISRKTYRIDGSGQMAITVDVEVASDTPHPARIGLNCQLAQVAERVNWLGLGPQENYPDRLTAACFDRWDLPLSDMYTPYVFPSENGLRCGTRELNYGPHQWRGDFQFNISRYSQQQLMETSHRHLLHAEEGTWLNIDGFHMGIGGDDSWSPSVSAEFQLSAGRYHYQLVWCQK

[4] = biological target: T3, Rac GTPase-activating protein 1 (Homo sapiens, UniProt Q9H0H5); assay: blockers of MgcRacGAP-driven Rac1 GTP hydrolysis – biochemical, ADP Hunter fluorescence, primary and confirmatory, confirmation (AID 624330); assay type: functional
T3 sequence (Q9H0H5 whole entry): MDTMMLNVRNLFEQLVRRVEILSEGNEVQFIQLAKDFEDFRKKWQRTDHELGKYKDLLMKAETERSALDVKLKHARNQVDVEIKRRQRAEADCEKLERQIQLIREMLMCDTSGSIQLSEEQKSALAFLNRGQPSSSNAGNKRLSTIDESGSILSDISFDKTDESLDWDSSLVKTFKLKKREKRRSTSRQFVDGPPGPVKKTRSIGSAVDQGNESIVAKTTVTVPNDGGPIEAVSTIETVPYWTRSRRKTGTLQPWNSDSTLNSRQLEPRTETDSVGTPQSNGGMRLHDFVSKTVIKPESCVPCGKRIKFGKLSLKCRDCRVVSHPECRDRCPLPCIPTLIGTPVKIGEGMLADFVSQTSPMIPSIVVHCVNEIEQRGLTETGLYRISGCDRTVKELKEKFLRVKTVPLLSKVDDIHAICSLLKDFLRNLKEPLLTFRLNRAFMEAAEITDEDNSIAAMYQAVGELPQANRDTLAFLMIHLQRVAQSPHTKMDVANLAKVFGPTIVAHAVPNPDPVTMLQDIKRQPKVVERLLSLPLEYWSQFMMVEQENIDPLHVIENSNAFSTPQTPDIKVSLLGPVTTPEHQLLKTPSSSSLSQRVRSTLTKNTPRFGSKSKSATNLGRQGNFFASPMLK

[5] = biological target: T4, Polyadenylate-binding protein 1 (Homo sapiens, UniProt P11940); assay: MLLE binding blockers, Cy5 peptide tracer – biochemical, fluorescence polarization, Cy5-PAM2 peptide, secondary, miRNA deadenylation inhibitor project, dose response (AID 602260); assay type: functional; settings: read-out: IC50_Mean
T4 sequence (P11940 whole entry): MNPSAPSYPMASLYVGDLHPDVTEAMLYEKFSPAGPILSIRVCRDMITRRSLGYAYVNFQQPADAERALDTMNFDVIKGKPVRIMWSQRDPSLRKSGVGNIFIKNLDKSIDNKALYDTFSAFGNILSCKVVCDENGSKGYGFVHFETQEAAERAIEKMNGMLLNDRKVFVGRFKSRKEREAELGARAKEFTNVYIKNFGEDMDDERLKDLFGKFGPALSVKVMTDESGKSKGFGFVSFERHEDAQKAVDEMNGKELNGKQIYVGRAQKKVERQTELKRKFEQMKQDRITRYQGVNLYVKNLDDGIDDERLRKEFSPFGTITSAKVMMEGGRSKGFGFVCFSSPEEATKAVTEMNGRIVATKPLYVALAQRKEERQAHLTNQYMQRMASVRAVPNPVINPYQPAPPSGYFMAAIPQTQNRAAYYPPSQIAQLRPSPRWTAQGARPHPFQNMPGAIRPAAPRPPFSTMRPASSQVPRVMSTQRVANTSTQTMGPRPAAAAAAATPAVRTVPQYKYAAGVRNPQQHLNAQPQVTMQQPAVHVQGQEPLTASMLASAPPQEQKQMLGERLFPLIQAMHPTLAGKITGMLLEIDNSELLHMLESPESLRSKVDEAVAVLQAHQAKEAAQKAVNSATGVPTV

Genome polyprotein = Genome polyprotein (dengue virus type 2, UniProt P29990); assay: flavivirus cap methylation enzyme inhibition – biochemical, confirmation dose response, primary screen (AID 588689); assay type: functional
Genome polyprotein, sequence (P29990 2492-3391 limits assumed): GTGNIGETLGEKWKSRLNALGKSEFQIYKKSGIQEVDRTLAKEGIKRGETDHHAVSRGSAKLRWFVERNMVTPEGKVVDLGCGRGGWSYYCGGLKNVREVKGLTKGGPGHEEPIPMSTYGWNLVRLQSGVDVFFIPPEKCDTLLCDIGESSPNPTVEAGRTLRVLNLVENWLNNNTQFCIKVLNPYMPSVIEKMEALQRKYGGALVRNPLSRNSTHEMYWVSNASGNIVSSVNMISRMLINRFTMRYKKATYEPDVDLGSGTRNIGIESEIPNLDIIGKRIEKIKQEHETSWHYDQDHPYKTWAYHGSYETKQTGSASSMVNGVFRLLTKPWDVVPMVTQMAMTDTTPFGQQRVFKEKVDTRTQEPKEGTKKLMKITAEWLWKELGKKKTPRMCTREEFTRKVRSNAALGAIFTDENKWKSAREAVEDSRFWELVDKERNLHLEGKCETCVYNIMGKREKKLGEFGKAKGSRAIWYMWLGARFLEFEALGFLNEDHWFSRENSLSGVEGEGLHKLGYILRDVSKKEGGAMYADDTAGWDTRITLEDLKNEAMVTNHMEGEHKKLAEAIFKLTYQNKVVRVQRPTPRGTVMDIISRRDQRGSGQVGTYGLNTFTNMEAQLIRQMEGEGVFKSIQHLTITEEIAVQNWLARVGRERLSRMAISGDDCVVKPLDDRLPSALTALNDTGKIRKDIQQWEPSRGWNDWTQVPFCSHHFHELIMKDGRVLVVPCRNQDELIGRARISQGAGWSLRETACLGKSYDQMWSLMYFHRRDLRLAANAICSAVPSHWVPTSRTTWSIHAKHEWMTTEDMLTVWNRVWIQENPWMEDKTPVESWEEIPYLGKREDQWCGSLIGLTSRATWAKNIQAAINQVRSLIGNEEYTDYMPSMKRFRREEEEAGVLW

[6] = biological target: T4, Polyadenylate-binding protein 1; assay: MLLE domain peptide-binding blockers, IC50 – biochemical, fluorescence polarization, FITC-PAM2 peptide, dose response (AID 602259); assay type: functional; settings: read-out: IC50_Mean
Beta-arrestin-1 = Beta-arrestin-1 (Homo sapiens, UniProt P49407); assay: beta-arrestin/AP2 interaction blockers, potency – biochemical, cherry pick 1, beta2-adaptin appendage, flow cytometry, dose response (AID 588783); assay type: functional
Beta-arrestin-1, sequence (P49407 whole entry): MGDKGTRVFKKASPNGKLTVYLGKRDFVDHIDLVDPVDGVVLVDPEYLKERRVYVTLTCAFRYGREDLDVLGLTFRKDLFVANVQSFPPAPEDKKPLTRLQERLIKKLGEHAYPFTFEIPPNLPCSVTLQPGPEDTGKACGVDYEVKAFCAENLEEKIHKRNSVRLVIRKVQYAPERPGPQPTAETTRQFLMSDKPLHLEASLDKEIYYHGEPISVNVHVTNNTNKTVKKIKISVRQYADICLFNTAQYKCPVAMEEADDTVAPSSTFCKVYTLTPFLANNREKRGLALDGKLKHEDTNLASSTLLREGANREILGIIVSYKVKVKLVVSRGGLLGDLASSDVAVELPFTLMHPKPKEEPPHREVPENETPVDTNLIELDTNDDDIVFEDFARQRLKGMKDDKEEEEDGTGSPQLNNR

Hexokinase HKDC1 = biological target: T5, Hexokinase HKDC1 (Homo sapiens, UniProt Q2TB90); assay: inhibition of HKDC1 glucose phosphorylation – biochemical, W721R variant, dose response (AID 504729); assay type: functional
T5 sequence (Q2TB90 whole entry): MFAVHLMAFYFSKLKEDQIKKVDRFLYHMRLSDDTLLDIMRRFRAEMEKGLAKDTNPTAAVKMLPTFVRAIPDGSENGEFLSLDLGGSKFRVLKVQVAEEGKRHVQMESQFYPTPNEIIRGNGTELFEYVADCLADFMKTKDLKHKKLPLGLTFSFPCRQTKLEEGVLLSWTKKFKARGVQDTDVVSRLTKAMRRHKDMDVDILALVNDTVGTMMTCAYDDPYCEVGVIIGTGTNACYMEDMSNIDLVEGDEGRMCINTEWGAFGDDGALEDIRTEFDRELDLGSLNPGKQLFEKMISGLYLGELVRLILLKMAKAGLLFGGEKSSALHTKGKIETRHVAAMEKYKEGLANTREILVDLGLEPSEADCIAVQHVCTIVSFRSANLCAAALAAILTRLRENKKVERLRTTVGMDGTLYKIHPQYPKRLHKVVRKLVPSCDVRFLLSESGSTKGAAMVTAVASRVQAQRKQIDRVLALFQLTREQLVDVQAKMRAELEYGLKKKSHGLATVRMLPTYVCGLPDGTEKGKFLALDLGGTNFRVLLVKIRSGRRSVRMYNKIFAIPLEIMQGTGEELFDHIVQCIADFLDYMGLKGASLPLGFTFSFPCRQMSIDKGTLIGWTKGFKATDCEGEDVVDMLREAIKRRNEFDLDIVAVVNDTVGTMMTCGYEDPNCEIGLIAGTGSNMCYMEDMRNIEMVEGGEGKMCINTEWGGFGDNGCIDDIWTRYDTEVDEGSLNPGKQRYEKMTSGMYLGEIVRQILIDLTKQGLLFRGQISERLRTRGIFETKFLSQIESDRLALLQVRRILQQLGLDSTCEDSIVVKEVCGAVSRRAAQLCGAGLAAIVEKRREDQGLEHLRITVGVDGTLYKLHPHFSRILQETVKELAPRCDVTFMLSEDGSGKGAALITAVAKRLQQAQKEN

[7] = Trypanosoma cruzi growth suppression in host cells – NIH3T3 host cells, beta-gal luminescence, confirmation (AID 2044); assay type: functional, cell-based;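 further: intracellular parasites grown in NIH/3T3 mouse fibroblasts as host cells; luminescent beta-galactosidase reporter signal from transgenic T. cruzi replicating inside host cells; inhibitors lower the luminescence signal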
Vero = assay: viability of Vero cells under compound – cytotoxicity control for flavivirus capping enzyme inhibitors (AID 588742); assay type: functional; settings: Chlorocebus sabaeus
[8] = NIH3T3 cell viability loss – ATP luminescence, mouse fibroblasts, counter-screen, dose response (AID 2010); assay type: functional, cell-based;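 further: cells exposed to compound for about 90 hours before reading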
[9] = biological target: Epstein-Barr nuclear antigen 1 (Epstein-Barr virus (strain B95-8) (HHV-4) (Human herpesvirus 4), UniProt P03211); assay: inhibition of EBV nuclear antigen 1 DNA binding – biochemical, fluorescence polarization, 1536-well, dose response (AID 2381); design: species or system human gammaherpesvirus 4;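 further: fluorescence polarization of a Cy5 DNA probe bound by EBNA-1 protein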
Beta-galactosidase [10] = biological target: T2, Beta-galactosidase; assay: PubChem AID 485352; assay type: functional
[11] = biological target: Type-1 angiotensin II receptor (Homo sapiens, UniProt P30556); assay: antagonism of angiotensin II type 1 receptor – cell-based, uHTS hits, selectivity assay for APJ receptor antagonist project, dose response (AID 463214); assay type: functional;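 further: antagonist potency against angiotensin II stimulated AT1 response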
Type-1 angiotensin II receptor, sequence (P30556 whole entry): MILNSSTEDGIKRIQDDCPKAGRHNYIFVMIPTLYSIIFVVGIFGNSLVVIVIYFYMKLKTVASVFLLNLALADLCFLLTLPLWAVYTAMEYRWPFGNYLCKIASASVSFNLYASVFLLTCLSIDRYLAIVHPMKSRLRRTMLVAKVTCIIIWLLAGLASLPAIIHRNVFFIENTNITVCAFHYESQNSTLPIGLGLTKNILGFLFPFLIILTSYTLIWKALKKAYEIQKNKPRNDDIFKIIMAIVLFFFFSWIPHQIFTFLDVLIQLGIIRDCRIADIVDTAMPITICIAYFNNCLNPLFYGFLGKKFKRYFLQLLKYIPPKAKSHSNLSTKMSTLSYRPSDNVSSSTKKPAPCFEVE

[12] = biological target: Lytic switch protein BZLF1 (Epstein-Barr virus (strain B95-8) (HHV-4) (Human herpesvirus 4), UniProt P03206); assay: inhibition of BZLF1 ZTA DNA binding – biochemical, fluorescence polarization, Epstein-Barr virus, 1536-well, counter-screen for EBNA-1 inhibitor project, dose response (AID 2377); design: species or system human gammaherpesvirus 4;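 further: fluorescence polarization of Cy5-labelled ZRE DNA probe bound by purified Zta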
Lytic switch protein BZLF1, sequence (P03206 whole entry): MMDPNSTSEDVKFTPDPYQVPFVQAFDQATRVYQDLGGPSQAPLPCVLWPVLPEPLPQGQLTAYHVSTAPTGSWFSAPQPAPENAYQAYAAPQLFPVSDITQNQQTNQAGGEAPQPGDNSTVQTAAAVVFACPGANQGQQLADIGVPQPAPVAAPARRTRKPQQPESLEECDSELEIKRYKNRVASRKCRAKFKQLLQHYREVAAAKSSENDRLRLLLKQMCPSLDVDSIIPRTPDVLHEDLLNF

HEK293 [13] = assay: HEK293T cell viability loss, resazurin readout – resazurin fluorescence, cytotoxicity control for NF-kB activator project, SAR follow-up (AID 493251); assay type: functional, cell-based; settings: Homo sapiens
Jurkat = assay: SAR Analysis of small molecule inhibitors of […] specific antigen receptor-induced NF-kB activation in a Jurkat cell line using a luminescence assay - Set 3. [Related pubchem assays (depositor defined):AID435022, AID435025, AID465]; assay type: functional, cell-based; settings: Homo sapiens
HEK293 [14] = assay: SAR Analysis of small molecule inhibitors of B-cell specific antigen receptor-induced NF-kB activation in a HEK-293T cell line using a luminescence assay - Set 2. [Related pubchem assays (depositor defined):AID435022, AID435025, AID489021]; assay type: functional, cell-based; settings: Homo sapiens

For `COc1ccc(-n2c(-c3cccc(C)c3[N+](=O)[O-])n[nH]c2=S)cc1`, the IC50 (Leucine aminopeptidase) was 23.8 µM (active), the EC50 [1] was > 180 µM (inactive) and the EC50 [2] was > 150 µM (inactive).

For `O=C1C(Cl)=C(NC(=O)c2ccccc2)C(=O)C(Cl)=C1NC(=O)c1ccccc1`, the IC50 (Beta-galactosidase [3]) was > 66.6 µM (inactive), the IC50 [4] was 6.06 µM (active) and the IC50 [5] was 44.5 µM (inactive). The IC50 (Genome polyprotein) was 3.53 µM (active), the IC50 [6] was > 66 µM (inactive) and the IC50 (Beta-arrestin-1) was 4.97 µM (active). The IC50 (Hexokinase HKDC1) was 17.3 µM (active), the EC50 [7] was 2.13 µM (active) and the CC50 (Vero) was 29.5 µM (active). For the same molecule, the EC50 [8] was 2.78 µM (active).

With `CC(C)C(=O)Nc1cccc(C(=O)OCC(=O)c2ccc(Cl)cc2Cl)c1` the IC50 [9] was 11.3 µM (not active), the EC50 (Beta-galactosidase [10]) was > 40 µM (inactive) and the IC50 [11] was > 40 µM (not active). For the same molecule, the IC50 [12] was > 111 µM (not active).

With `CNC(=O)CCc1nc(-c2ccc(Cl)cc2)no1` the IC50 (HEK293 [13]) was > 80 µM (inactive), the IC50 (Jurkat) was > 80 µM (inactive) and the IC50 (HEK293 [14]) was > 80 µM (inactive).
